In ChEMBL document CHEMBL1154260, “Synthesis and SAR of alkanediamide-linked bisbenzamidines with anti-trypanosomal and anti-pneumocystis activity” (Bioorg Med Chem Lett, 2009):

Legend:
[1] = system: Trypanosoma brucei brucei; assay: Antitrypanosomal activity against pentamidine-sensitive Trypanosoma brucei brucei LAB 110 EATRO; type: functional, organism-based
[2] = system: Trypanosoma brucei rhodesiense; assay: Antitrypanosomal activity against Multidrug-resistant Trypanosoma brucei rhodesiense KETRI 243; type: functional, organism-based
[3] = system: Pneumocystis carinii; assay: Antipneumocystis activity against Pneumocystis carinii; type: functional, organism-based
[4] = system: Nucleic Acid; assay: Binding affinity to poly(dA-dT)DNA assessed as change in melting temperature; type: nucleic-acid assay
[5] = system: Nucleic Acid; assay: Binding affinity to DNA assessed as change in melting temperature; type: nucleic-acid assay
[6] = system: A549; assay: Cytotoxicity against human A549 cells; type: cell-based
[7] = Selectivity index, ratio of IC50 for human A549 cells to IC50 for Trypanosoma brucei; type: toxicity, cell-based; conditions: read-out: Ratio IC50
[8] = Selectivity index, ratio of IC50 for human A549 cells to IC50 for Pneumocystis carinii

| Compound | IC50 [1] | IC50 [2] | IC50 [3] | ΔTm [4] | ΔTm [5] | IC50 [6] | selectivity ratio [7] | Ratio IC50 [8] |
| --- | --- | --- | --- | --- | --- | --- | --- | --- |
| N=C(N)c1cccc(NC(=O)CCCCC(=O)Nc2cccc(C(=N)N)c2)c1 | 0.041 µM | 0.021 µM | 33.7 µM | 13.8 °C | 13.8 °C |  |  |  |
| NC(=O)c1cccc(NC(=O)CCCCC(=O)Nc2cccc(C(N)=O)c2)c1 |  | 1.97 µM | > 100 µM | 7.5 °C |  | > 261 µM |  |  |
| N=C(N)c1ccc(NC(=O)CCCCC(=O)Nc2cccc(C(=N)N)c2)cc1 | 0.012 µM | 0.007 µM | 2.27 µM | 7.5 °C |  | > 227 µM | 18900 |  |
| N=C(N)c1ccc(NC(=O)CCCCCCCCC(=O)Nc2ccc(C(=N)N)cc2)cc1 | 0.002 µM | 0.004 µM | 4.28 µM | 7.5 °C |  | 249 µM | 18900 |  |
| N=C(N)c1ccc(NC(=O)CCCCCCCC(=O)Nc2ccc(C(=N)N)cc2)cc1 | 0.4 µM | 0.24 µM | 2.44 µM | 7.5 °C |  | 2.87 µM |  |  |
| N=C(N)c1ccc(NC(=O)CCCCCCCCCCC(=O)Nc2ccc(C(=N)N)cc2)cc1 | 0.008 µM | 0.007 µM | 3.07 µM | 7.5 °C |  | 18 µM |  |  |
| N=C(N)c1ccc(NC(=O)CCCC(=O)Nc2ccc(C(=N)N)cc2)cc1 | 0.009 µM | 0.096 µM | 0.003 µM | 7.5 °C | 11.4 °C | 2280 µM |  |  |
| N=C(N)c1ccc(OCCCCCOc2ccc(C(=N)N)cc2)cc1 [PENTAMIDINE] |  | […] |  | 21.6 °C |  |  |  |  |
| N=C(N)c1ccc(NC(=O)CCC(=O)Nc2ccc(C(=N)N)cc2)cc1 | 9 µM | 2.19 µM | 0.442 µM | 7.5 °C | 11.4 °C | > 44.2 µM |  |  |
| NC(=O)c1ccc(NC(=O)CCCCC(=O)Nc2ccc(C(N)=O)cc2)cc1 | 2.8 µM | 1.1 µM | > 100 µM | 7.5 °C |  |  |  |  |
| N=C(N)c1ccc(NC(=O)CCCCCCC(=O)Nc2ccc(C(=N)N)cc2)cc1 | 0.003 µM | 0.001 µM | 1.95 µM | 13.2 °C | 13.2 °C | 176 µM | 18900 |  |
| N#Cc1ccc(NC(=O)CCCC(=O)Nc2ccc(C#N)cc2)cc1 | 6.5 µM | 7.9 µM |  | 7.5 °C |  |  |  |  |
| N=C(N)c1ccc(NC(=O)CCCCCC(=O)Nc2ccc(C(=N)N)cc2)cc1 | 0.002 µM | 0.002 µM | 2.37 µM | 7.5 °C |  | > 237 µM | 18900 |  |
| N=C(N)c1ccc(NC(=O)CCCCC(=O)Nc2ccc(C(=N)N)cc2)cc1 | 0.003 µM | 0.002 µM |  | 7.5 °C | 11.4 °C | 1190 µM | 18900 | 596500 |
